Patent US8981141B1, “I-and II-type crystals of L-A-glyceryl phosphoryl choline, and method for preparing same” (Hanseochem Co., Ltd., priority 2011, dated 2015)
Entries after “also recorded” stand apart in the source; their conditions may differ.

Assay: Hygroscopicity test (water content change with time under 30% humidity)
Assay type: physicochemical
Conditions: for hygroscopicity (result in words): humidity condition of 30% for 10 hours; for water content after being left under humidity: humidity condition of 30%, after about 10 hours; for initial water content: raw material before exposure to humidity condition of 30%
Protocol: In the figure, X axis indicates the elapse time and Y axis the water content.
In case of the polymorphic crystal, however, the initial water content was 2.9% but increased to 4.2% after 10 hours due to absorption moisture from air.

| SMILES | hygroscopicity (result in words) | water content after being left under humidity [%] | initial water content [%] |
| --- | --- | --- | --- |
| C[N+](C)(C)CCOP(=O)(O)OC[C@H](O)CO [Type I crystal, L-alpha-glyceryl phosphoryl choline] | very low hygroscopicity | 0.2 | 0.1 |
| C[N+](C)(C)CCOP(=O)(O)OC[C@H](O)CO [Type II crystal, L-alpha-glyceryl phosphoryl choline] | very low hygroscopicity | 6.5 | 6.5 |
| C[N+](C)(C)CCOP(=O)(O)OC[C@H](O)CO [polymorphic crystal, L-alpha-glyceryl phosphoryl choline, reference compound] | relatively very hygroscopic; also recorded: high hygroscopicity | 4.2 | 2.9 |
